From US20100249184A1, “INDUCTION AND/OR MAINTENANCE OF TUMOR DORMANCY BY DISRUPTION OF UROKINASE PLASMINOGEN ACTIVATOR RECEPTOR-INTEGRIN INTERACTION” (MOUNT SINAI SCHOOL OF MEDICINE, priority 2007, published 2010)

Experiments:
T-ELK:GFP cells = assay: ERK activation reporter (GFP, FACS) in T-ELK:GFP cells; format: cell-based, human; conditions: 38 hrs, untreated 7.4%
Description: FIGS. 6A-E show ERK activation and growth in vivo. In FIG. 6A, HEK293 and D-Hep3 cells transfected with uPAR^wt produces stronger activation of ERK than cells transfected with uPAR^S245A or with vector (top and middle panels); HEK293, and D-HEp3 cells, transiently transfected with pcDNA3.1 vector, or with an expression construct for uPAR^wt or uPAR^S245A lysed 48 hrs later and analyzed by Western blotting for phospho-ERK (FIG. 6A, top panels) and ERK 1/2 (FIG. 6A, middle panels) with specific antibodies. The bands were scanned with NIH Image and plotted. The ratio of phospho-ERK to ERK was calculated and expressed as a fraction of the ratio of pcDNA3.1 transfected cells. In FIG. 6A (bottom panels), uPAR^wt and uPAR^S245A expression was determined by Western blotting. […] D-HEp3 cells transfected with vector, or uPAR^wt or uPAR^S245A were detached with EDTA 36 hrs after transfection and 7×10^5 cells in 30 μl PBS were inoculated onto chorioallantoic membranes (“CAMs”) of 10-day old chick embryos. Each sample was inoculated onto 4 CAMs. The CAMs were excised 4 days later and the number of tumor cells was determined as in the Examples. The bars show mean and standard deviation. Paired t-test vector/uPAR^S245A p=0.76, vector/uPAR^wt p=0.0005, uPAR^S245/uPAR^wt p=0.0002. Inset: uPAR expression detected by Western blot with R2 antibody. In FIG. 6C, peptide 240-248, but not peptide 17-24, down regulates P-ERK level. […] The cells were lysed and the lysates were analyzed for P-ERK (FIG. 6C, upper panel) and total ERK (FIG. 6C, lower panel) by Western blotting. […] The cells were processed as in FIG. 6C, except that the bands were scanned by NIH Image the P-ERK/ERK ratio was calculated. […] The cells were detached and analyzed for GFP in FACS Canto using FACSDiva software. […]
[…] The cells were detached and analyzed for GFP by FACS analysis using FACS Canto (Becton Dickinson, Calif.) and FACSDiva software. […] Concentration dependence of P-ERK inhibition was analyzed by scanning P-ERK and ERK bands with NIH-Image and expressing their ratios as % of the ratio in untreated control (T-HEp3) cells. […]

T-HEp3 cells = assay: Adhesion assay to fibronectin, T-HEp3 cells; format: cell-based, human; conditions: peptide 20 or 200 μM, 15 min

Substance | GFP-positive cells (% of total) (T-ELK:GFP cells; 25 μM peptide) | adhesion to fibronectin (T-HEp3 cells) | GFP-positive cells (% of total) (T-ELK:GFP cells; 5 μM peptide)
peptide 17-24: synthetic uPAR-derived peptide, domain I amino acid 17-24: CALGQDLC (SEQ ID NO:5); negative control [reference compound] | 6.2% | no effect | –
peptide 240-248: synthetic uPAR-derived peptide, domain III residues 240-248: GCATASMCQ (SEQ ID NO:9) | 0.7% | reduced adhesion to fibronectin | 1.6%
